The text below walks through data of publication PMC6628623, “Effects of Destruxin A on Silkworm’s Immunophilins” (Toxins, 2019).

The target in assay [1] is T1, BmPPI (Bombyx mori, UniProt Q1HQ20).
T1 construct: cyclophilin superfamily
T1 sequence (Q1HQ20 1-171): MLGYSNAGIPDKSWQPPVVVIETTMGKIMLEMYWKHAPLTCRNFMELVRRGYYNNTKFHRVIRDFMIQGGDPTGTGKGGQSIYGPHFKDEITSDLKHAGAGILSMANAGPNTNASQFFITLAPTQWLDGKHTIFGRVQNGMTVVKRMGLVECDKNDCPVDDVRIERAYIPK
Briefly: bio-layer interferometry, His-tagged protein on Ni-NTA biosensor. The assay is classed as binding. From the text:
bio-layer interferometry, His-tagged protein on Ni-NTA biosensor on BmPPI
(BLI is a label-free optical method that tracks binding on a fibre tip over time.)

Assay [2] addresses Bmo.3174 (predicted B. mori cell division cycle 5-like protein, BmCDC5), DNA-binding-domain fusion (Bombyx mori (silkworm)). Briefly: two-hybrid; insect two-hybrid (I2H) in Spodoptera frugiperda Sf-9 cells co-transfected with AD, DBD and PIE-Luc vectors; luciferase read-out (lumen value) against untransfected Sf-9 cells (CK, 40); 27 °C.

Where a SMILES comes first, the peptide text is derived from it. [ ]: non-standard residue; d: D form. dLac(3-vinyl) = C=CC[C@@H](O)C(=O)O; NMeV = CN[C@H](C(=O)O)C(C)C; NMeA = CN[C@@H](C)C(=O)O; βAla = NCCC(=O)O

As usually defined, the Kd is the free concentration of one partner at which half of the binding sites on the other are occupied at equilibrium, for simple one-to-one binding. Low readings indicate tighter binding, high ones weaker binding. `C=CC[C@H]1OC(=O)CCNC(=O)[C@H](C)N(C)C(=O)[C@H](C(C)C)N(C)C(=O)[C@H]([C@@H](C)CC)NC(=O)[C@@H]2CCCN2C1=O` [DA, Destruxin A] (cyclo(I[NMeV][NMeA][βAla][dLac(3-vinyl)]P)) registered a Kd in assay [1] of 1980 µM.

“peptidyl-prolyl cis-trans isomerase (BmPPI), activation-domain fusion (natural protein)”: in assay [2], the lumen value (luciferase, I2H) was 580.
